Assay results taken from ChEMBL document CHEMBL4507276 (2021).

Legend:
[1] = molecular target: Mitogen-activated protein kinase kinase kinase 13 (Homo sapiens) (UniProt O43283); conditions: Compound concentration 1000.0 nM
[2] = molecular target: Adenosine receptor A2a (Homo sapiens) (UniProt P29274); assay: A2A/HU Eurofins-Panlabs selectivity data (BI); conditions: Compound concentration 10.0 uM
[3] = molecular target: Adenosine receptor A1 (Homo sapiens) (UniProt P30542); assay: A1/HU Eurofins-Panlabs selectivity data (BI); conditions: Compound concentration 10.0 uM
[4] = molecular target: Serine/threonine-protein kinase SIK2 (Homo sapiens) (UniProt Q9H0K1); assay: SNF1LK2 Invitrogen selectivity data (BI); conditions: Compound concentration 3.0 uM
[5] = molecular target: Hepatocyte growth factor receptor (Homo sapiens) (UniProt P08581); assay: MET Invitrogen selectivity data (BI); conditions: Compound concentration 3.0 uM
[6] = molecular target: Neuropeptide Y receptor type 1 (Homo sapiens) (UniProt P25929); assay: Y1/HUM Cerep selectivity data (BI); conditions: filed as antagonist, Compound concentration 20.0 uM
[7] = molecular target: LIM domain kinase 2 (Homo sapiens) (UniProt P53671); assay: LIMK2 Invitrogen selectivity data (BI); conditions: Compound concentration 3.0 uM
[8] = molecular target: Alpha-2B adrenergic receptor (Homo sapiens) (UniProt P18089); assay: ALPHA2BH_ANTAG Cerep selectivity data (BI); conditions: filed as antagonist, Compound concentration 20.0 uM
[9] = molecular target: Tyrosine-protein kinase FRK (Homo sapiens) (UniProt P42685); assay: FRK Invitrogen selectivity data (BI); conditions: Compound concentration 3.0 uM
[10] = molecular target: B1 bradykinin receptor (Homo sapiens) (UniProt P46663); assay: B1/H Eurofins-Panlabs selectivity data (BI); conditions: Compound concentration 10.0 uM
[11] = molecular target: Sigma non-opioid intracellular receptor 1 (Homo sapiens) (UniProt Q99720); assay: SIGMA/NS Cerep selectivity data (BI); conditions: filed as agonist, Compound concentration 20.0 uM
[12] = molecular target: Phosphatidylinositol 4-kinase alpha (Homo sapiens) (UniProt P42356); assay: PI4KA Invitrogen selectivity data (BI); conditions: Compound concentration 3.0 uM
[13] = molecular target: Rho-associated protein kinase 1 (Homo sapiens) (UniProt Q13464); assay: ROCK1 Invitrogen selectivity data (BI); conditions: Compound concentration 3.0 uM
[14] = molecular target: T1, Calcium/calmodulin-dependent protein kinase type IV (Homo sapiens) (UniProt Q16566); assay: CAMK4 Invitrogen selectivity data (BI); conditions: Compound concentration 3.0 uM
T1 sequence (whole entry): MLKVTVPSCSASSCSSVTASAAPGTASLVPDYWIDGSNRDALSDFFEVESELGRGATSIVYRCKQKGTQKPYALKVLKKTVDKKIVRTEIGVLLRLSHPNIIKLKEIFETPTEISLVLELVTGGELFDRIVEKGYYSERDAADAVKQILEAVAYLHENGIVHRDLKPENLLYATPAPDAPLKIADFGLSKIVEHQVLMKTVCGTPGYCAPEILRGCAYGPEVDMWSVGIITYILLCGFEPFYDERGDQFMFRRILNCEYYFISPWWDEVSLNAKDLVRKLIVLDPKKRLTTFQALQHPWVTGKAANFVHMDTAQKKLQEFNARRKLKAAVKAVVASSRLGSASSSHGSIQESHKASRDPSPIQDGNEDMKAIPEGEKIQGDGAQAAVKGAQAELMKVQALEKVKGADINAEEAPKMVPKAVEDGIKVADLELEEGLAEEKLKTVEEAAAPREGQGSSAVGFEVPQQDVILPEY

[15] = molecular target: SRSF protein kinase 1 (Homo sapiens) (UniProt Q96SB4); assay: SRPK1 Invitrogen selectivity data (BI); conditions: Compound concentration 3.0 uM
[16] = molecular target: T2, Serine/threonine-protein kinase D2 (Homo sapiens) (UniProt Q9BZL6); assay: PRKD2 Invitrogen selectivity data (BI); conditions: Compound concentration 3.0 uM
T2 sequence (whole entry): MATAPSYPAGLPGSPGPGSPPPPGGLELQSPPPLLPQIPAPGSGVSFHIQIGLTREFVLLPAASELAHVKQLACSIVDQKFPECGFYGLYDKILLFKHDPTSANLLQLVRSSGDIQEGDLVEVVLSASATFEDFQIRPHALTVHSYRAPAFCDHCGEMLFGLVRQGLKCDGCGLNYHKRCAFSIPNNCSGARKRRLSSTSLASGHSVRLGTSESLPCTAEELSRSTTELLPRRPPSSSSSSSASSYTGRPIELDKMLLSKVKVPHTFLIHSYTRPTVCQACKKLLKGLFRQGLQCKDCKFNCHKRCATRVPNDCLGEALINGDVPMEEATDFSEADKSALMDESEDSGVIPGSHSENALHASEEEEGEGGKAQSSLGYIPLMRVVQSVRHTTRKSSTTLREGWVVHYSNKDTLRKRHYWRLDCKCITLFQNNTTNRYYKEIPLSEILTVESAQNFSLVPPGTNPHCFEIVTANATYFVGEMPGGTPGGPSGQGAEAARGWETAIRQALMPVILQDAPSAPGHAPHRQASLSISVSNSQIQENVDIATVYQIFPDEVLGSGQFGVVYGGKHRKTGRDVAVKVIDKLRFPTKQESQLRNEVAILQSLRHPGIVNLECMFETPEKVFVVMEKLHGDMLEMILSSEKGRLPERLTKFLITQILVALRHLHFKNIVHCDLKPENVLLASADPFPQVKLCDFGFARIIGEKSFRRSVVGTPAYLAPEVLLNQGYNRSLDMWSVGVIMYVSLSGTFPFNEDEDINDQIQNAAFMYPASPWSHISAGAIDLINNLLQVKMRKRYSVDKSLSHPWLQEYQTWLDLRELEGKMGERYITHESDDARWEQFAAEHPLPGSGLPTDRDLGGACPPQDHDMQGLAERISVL

[17] = molecular target: T3, cGMP-dependent protein kinase 2 (Homo sapiens) (UniProt Q13237); assay: PRKG2 Invitrogen selectivity data (BI); conditions: Compound concentration 3.0 uM
T3 sequence (whole entry): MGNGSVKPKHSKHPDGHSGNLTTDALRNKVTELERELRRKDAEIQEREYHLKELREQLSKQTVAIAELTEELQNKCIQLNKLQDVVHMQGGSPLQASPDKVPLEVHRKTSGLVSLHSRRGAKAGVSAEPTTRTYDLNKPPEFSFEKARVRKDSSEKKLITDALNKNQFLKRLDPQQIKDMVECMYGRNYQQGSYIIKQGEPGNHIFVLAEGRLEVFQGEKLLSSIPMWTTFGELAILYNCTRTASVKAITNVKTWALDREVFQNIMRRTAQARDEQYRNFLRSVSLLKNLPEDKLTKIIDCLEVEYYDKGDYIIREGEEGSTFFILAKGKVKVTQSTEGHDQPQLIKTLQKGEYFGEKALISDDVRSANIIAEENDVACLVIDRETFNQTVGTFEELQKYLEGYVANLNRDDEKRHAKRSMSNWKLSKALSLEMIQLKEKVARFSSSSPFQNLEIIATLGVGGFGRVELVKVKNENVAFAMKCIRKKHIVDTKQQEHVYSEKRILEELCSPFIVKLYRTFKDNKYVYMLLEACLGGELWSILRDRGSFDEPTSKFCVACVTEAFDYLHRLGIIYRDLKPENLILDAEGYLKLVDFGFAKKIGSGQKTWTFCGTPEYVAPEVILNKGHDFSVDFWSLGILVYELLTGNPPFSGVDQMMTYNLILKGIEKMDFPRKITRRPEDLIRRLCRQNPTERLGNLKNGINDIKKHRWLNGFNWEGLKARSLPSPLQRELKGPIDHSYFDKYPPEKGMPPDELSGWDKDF

Measured: residual activity

Hepatocyte growth factor receptor (Homo sapiens), sequence (P08581 whole entry): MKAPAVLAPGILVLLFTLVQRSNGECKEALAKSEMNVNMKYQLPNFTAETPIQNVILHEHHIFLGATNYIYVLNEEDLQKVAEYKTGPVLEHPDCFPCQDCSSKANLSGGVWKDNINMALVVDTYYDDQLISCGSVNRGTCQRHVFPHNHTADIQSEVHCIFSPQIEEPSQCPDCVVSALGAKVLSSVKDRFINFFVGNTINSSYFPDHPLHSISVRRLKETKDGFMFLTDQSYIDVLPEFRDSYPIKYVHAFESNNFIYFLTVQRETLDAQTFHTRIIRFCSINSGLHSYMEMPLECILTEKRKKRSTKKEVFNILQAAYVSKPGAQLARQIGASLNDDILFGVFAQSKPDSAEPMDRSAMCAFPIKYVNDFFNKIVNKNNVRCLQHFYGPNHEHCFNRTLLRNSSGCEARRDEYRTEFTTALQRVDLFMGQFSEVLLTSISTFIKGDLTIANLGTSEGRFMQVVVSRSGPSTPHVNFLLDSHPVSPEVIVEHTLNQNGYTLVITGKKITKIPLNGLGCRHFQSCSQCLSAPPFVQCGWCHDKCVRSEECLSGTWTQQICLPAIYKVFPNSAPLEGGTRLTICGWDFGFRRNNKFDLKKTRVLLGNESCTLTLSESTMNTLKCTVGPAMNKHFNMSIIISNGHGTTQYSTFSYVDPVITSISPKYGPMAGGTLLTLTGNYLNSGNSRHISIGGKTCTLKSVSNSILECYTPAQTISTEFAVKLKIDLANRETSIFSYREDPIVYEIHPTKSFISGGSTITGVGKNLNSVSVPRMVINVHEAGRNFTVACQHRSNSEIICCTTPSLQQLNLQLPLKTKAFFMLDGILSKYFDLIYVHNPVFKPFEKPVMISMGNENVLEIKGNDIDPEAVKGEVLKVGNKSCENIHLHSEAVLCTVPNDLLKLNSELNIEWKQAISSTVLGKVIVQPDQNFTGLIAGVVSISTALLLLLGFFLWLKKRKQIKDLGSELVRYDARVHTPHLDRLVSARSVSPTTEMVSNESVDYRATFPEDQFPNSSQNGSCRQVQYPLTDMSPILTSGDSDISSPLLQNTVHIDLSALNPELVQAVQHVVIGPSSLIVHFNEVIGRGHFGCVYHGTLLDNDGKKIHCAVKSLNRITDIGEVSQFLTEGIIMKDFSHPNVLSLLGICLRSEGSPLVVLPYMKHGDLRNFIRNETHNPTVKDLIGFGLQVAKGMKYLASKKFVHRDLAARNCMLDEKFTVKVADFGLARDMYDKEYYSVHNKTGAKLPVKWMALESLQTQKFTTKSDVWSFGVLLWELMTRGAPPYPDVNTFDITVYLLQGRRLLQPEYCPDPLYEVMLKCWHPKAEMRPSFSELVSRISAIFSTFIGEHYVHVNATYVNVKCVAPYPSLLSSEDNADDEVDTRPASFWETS
Alpha-2B adrenergic receptor (Homo sapiens), sequence (P18089 whole entry): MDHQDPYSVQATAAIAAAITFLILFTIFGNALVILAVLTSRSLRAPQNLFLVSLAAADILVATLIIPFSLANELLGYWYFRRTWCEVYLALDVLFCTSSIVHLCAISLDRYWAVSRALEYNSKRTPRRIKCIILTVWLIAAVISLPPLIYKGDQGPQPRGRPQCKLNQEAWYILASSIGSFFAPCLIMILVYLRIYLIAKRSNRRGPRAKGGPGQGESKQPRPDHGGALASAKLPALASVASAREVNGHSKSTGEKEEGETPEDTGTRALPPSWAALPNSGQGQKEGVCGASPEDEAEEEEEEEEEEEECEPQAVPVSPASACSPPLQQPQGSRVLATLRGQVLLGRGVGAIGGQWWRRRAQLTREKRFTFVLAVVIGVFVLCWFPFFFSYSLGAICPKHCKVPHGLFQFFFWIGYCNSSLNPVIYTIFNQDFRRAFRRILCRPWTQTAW
Sigma non-opioid intracellular receptor 1 (Homo sapiens), sequence (Q99720 whole entry): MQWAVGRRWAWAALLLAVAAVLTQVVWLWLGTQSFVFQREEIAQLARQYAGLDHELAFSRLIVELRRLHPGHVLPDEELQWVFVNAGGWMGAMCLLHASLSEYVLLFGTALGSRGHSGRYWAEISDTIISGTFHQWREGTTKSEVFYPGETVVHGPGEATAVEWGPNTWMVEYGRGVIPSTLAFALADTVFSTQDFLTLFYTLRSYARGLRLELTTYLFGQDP
Tyrosine-protein kinase FRK (Homo sapiens), sequence (P42685 whole entry): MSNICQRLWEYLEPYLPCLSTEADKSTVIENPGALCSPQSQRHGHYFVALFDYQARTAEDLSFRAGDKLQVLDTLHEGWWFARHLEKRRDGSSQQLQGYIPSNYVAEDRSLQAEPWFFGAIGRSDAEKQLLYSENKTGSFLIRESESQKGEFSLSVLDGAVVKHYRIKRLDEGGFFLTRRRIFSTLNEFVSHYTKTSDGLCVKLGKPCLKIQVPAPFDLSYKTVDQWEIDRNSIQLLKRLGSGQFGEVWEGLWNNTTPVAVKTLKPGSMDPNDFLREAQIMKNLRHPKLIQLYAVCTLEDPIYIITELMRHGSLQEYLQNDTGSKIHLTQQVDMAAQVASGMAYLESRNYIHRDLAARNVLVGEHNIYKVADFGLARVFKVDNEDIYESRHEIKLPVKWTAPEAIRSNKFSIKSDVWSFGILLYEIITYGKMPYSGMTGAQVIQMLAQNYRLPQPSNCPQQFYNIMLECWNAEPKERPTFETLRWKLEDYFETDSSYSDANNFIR
Adenosine receptor A2a (Homo sapiens), sequence (P29274 whole entry): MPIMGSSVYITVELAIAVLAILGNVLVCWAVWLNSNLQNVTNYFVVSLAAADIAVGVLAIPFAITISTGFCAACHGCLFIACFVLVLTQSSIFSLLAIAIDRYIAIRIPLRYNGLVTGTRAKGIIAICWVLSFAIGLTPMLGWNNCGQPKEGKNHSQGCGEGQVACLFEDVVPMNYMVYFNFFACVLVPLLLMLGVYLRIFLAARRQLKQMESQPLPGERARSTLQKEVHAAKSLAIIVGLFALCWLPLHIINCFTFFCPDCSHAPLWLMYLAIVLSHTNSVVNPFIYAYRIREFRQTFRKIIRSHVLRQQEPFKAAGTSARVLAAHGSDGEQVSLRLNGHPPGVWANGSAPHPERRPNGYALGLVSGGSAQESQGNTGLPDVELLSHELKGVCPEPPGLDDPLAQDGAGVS
Neuropeptide Y receptor type 1 (Homo sapiens), sequence (P25929 whole entry, the tested form may be a part): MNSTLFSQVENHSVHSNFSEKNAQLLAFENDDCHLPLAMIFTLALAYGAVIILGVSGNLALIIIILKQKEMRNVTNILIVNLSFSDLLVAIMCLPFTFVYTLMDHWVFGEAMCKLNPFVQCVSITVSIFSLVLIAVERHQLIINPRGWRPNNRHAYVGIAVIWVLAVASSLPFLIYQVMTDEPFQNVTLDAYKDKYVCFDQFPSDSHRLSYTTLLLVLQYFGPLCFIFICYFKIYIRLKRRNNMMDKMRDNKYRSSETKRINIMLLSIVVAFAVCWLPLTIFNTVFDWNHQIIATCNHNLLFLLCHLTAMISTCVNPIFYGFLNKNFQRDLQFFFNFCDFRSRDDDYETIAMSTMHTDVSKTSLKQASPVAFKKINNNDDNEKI
Serine/threonine-protein kinase SIK2 (Homo sapiens), sequence (Q9H0K1 whole entry, looked up): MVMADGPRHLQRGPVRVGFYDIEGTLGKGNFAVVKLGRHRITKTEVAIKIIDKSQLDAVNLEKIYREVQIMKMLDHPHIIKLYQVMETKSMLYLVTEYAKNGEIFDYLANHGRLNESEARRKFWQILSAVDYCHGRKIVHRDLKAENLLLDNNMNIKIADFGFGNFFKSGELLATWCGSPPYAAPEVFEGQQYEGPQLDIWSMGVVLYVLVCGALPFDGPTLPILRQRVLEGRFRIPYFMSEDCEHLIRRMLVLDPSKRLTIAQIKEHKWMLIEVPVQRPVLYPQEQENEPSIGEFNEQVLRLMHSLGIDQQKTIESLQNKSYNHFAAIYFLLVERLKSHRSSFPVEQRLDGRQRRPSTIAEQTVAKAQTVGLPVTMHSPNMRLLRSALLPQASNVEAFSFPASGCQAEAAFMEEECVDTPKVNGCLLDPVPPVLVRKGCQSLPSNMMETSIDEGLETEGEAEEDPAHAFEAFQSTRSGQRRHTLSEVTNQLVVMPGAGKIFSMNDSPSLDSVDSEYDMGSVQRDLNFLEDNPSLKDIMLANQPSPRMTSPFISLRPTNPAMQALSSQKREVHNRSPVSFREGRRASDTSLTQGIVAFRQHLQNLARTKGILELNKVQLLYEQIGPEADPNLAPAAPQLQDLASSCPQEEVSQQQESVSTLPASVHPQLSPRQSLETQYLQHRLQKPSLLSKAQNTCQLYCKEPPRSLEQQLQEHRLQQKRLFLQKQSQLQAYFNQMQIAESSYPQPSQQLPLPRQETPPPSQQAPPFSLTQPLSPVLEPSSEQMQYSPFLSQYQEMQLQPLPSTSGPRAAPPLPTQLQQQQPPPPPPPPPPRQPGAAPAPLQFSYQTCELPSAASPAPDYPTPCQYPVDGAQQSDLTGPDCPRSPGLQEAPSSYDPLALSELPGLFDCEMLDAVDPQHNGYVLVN
Adenosine receptor A1 (Homo sapiens), sequence (P30542 whole entry): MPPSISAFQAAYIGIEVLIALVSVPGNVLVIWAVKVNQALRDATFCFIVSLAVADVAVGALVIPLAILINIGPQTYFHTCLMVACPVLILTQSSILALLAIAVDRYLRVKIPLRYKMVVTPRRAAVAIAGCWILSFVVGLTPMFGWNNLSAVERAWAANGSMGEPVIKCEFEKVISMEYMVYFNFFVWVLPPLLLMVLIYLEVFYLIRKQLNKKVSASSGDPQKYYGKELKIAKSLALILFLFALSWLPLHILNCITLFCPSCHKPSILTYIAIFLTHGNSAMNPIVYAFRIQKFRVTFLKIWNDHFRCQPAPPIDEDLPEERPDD
B1 bradykinin receptor (Homo sapiens), sequence (P46663 whole entry): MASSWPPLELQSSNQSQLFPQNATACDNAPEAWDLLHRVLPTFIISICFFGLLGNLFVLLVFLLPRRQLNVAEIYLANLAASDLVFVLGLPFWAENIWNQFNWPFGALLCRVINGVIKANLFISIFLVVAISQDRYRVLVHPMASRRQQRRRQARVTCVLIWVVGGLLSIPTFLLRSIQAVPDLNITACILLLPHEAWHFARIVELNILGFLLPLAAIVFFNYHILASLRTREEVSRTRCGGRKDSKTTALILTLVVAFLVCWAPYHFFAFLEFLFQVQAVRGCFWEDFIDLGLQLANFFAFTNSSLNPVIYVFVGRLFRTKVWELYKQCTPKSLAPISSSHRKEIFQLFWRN

CN(C)C(=O)Cn1cc(-c2nc(C3(c4ccc(-c5cnc(N)nc5)cc4)CC3)no2)cn1 [BI 0153]
inactive: [1] 100%

CN(C)C(=O)Cn1cc(-c2nc([C@@](C)(c3ccc(-c4cnc(N)nc4)cc3)C3CC3)no2)cn1 [BI 665915]
inactive: [2] 105% | [3] 75% | [4] 97.5% | [5] 97% | [6] 104% | [7] 89% | [8] 100% | [9] 94.5% | [10] 112% | [11] 99% | [12] 106% | [13] 99.5% | [14] 86% | [15] 97.5% | [16] 95% | [17] 92.5%
